Measurements as given in patent US11325892B2, “Compounds and methods for treating cancer” (Mayo Foundation for Medical Education and Research, priority 2014, dated 2022).

Experiments:
Assay type in all cases: cell-based
[1] = system: ATC cells; assay: Proliferative dose response of thyroid cells; conditions: ATC cells; for proliferation: 72H treatment; for 50% effective concentrations (EC50): proliferation
Method: (§1) Cells were seeded at 5,000 cells/well in clear-bottom 96-well plates in triplicate in Maintenance Media. Drug treatment was applied at a concentration of 1:1000 in reduced serum (3%) Maintenance Media. After 72 hours, cells were washed with PBS, and stored at −80° C. prior to analysis using CyQuant® Proliferation Analysis Kit (Invitrogen) as per manufacturers' protocol for relative fluorescence units. Alternatively, cells were plated 2×10^5/well in 12-well plates (Midwest Scientific) in triplicate prior to drug treatment. After 120 hour treatment, cell number was established using a Coulter Particle Counter (Beckman). Or, cells were plated (0.5 or 1×10^5/well) in 24-well plates (Midwest Scientific), 3×. After 72 hour treatment, cell number established using Coulter Particle Counter (Beckman). Oleic acid-albumin (Sigma Aldrich) was added to media at 5 μM, and was applied adjuvant to drug treatment. Drug stocks were prepared in DMSO (Sigma) at 1000×. EC50 dosing per cell line was calculated using CalcuSyn® analytical software.
The efficacy of pharmacologic inhibition of this enzyme on tumor cell proliferation after a 72H treatment was determined, using A939572-a commercially available small molecule SCD1 inhibitor (Xin Z, Zhao H, Serby M D, Liu B, Liu M, Szczepankiewicz B G, Nelson L T, Smith H T, Suhar T S, Janis R S, Cao N, Camp H S, Collins C A, Sham H L, Surowy T K, Liu G. Discovery of piperidine-aryl urea-based stearoyl-CoA desaturase 1 inhibitors. Bioorg Med Chem Lett. 2008; 18(15):4298-302). […] Despite conspicuous SCD1 expression in 4 of the 5 FTC cells tested, no response to A939572 was observed (FIG. 10D).
THJ29T, THJ16T, and KTC2 were treated with carfilzomib (FIG. 12A) or bortezomib for 72H in order to establish EC50 values. […] Anti-proliferative drug synergy was evaluated in THJ29T and THJ16T treated with either A939572 or MF-438 in combination with either bortezomib or carfilzomib for 48H. Synergy was assessed using CalcuSyn analytical software, which determines the combination index (CI) based on the Chou-Talalay method where CI values >1 represent an antagonistic effect and values <1 represent synergy, and lower values signify enhanced synergy (Chou T C, Talalay P. Analysis of Combined Drug Effects—a New Look at a Very Old Problem. Trends in Pharmacological Sciences. 1983; 4(11):450-4).

[2] = system: THJ29T, THJ16T and KTC2 cells; assay: Oleic acid rescue of proliferation in ATC cells; conditions: EC50 dose for 72H with 5 μM oleic acid
Method: as §1, with “software. […]” for “software.”

[3] = system: PARP cleavage and CHOP expression in THJ29T and THJ16T; assay: Western blot for PARP cleavage and CHOP expression, combinatorial therapy; conditions: EC50 doses, 48H
Method: Protein extraction and western blot analysis was performed as previously described (Copland J A, Marlow L A, Kurakata S, et al. Novel high-affinity PPARgamma agonist alone and in combination with paclitaxel inhibits human anaplastic thyroid carcinoma tumor growth via p21WAF1/CIP1. Oncogene. Apr 13 2006; 25(16):2304-2317). Primary antibodies included SCD1 (Sigma-Aldrich, #HPA012107), BiP (Cell Signaling, #3183), CHOP (Cell Signaling, #2895), sXBP1(Santa Cruz Biotechnology, #sc-7160), PARP(Cell Signaling, #9542), and β-actin (Sigma-Aldrich, #A5441).
THJ29T and THJ16T treated for 48H with EC50 doses of either A939572 or MF-438 in combination with either carfilzomib or bortezomib were probed for PARP cleavage and CHOP expression, both markers indicative of apoptosis (FIGS. 14A-B, 15A-B). […] Cell death was additionally examined via flow cytometry using propidium iodide staining. THJ29T and THJ16T were treated for 48H with EC50 doses of either A939572 or MF-438 in combination with either carfilzomib or bortezomib prior to staining and analysis.

CNC(=O)c1cccc(NC(=O)N2CCC(Oc3ccccc3Cl)CC2)c1 [A939572]
proliferation [1]: dose-dependent decrease in proliferation | 50% effective concentrations (EC50) [1]: low nanomolar dose range | rescue of proliferation with OA [2]: complete rescue of proliferation | PARP cleavage as compared to DMSO control [3]: significant PARP cleavage

Cc1nnc(-c2ccc(N3CCC(Oc4ccccc4C(F)(F)F)CC3)nn2)s1 [MF-438, 2-methyl-5-(6-(4-(2-(trifluoromethyl)phenoxy)piperidin-1-yl)pyridazin-3-yl)-1,3,4-thiadiazole]
proliferation [1]: dose-dependent decrease in ATC proliferation | 50% effective concentrations (EC50) [1]: low nanomolar dose range | rescue of proliferation with OA [2]: complete rescue of proliferation | PARP cleavage as compared to DMSO control [3]: significant PARP cleavage
